Earlier results as cited in patent publication US9186343B2, “Nanoveso™: treatment, biomarkers and diagnostic tests for liver diseases and comorbid diseases” (Nanoveson, LLC, priority 2007, dated 2015).
Several values for one entry are separate records, joined by “and”; a condition that tells them apart may be missing. Equal entries are not always repeated.

B1: annexin: synexin (a.k.a. annexin VII), a Ca2+ binding protein (protein, UniProt P20073 1-488, looked up)
Annexin A7: MSYPGYPPTGYPPFPGYPPAGQESSFPPSGQYPYPSGFPPMGGGAYPQVPSSGYPGAGGYPAPGGYPAPGGYPGAPQPGGAPSYPGVPPGQGFGVPPGGAGFSGYPQPPSQSYGGGPAQVPLPGGFPGGQMPSQYPGGQPTYPSQINTDSFSSYPVFSPVSLDYSSEPATVTQVTQGTIRPAANFDAIRDAEILRKAMKGFGTDEQAIVDVVANRSNDQRQKIKAAFKTSYGKDLIKDLKSELSGNMEELILALFMPPTYYDAWSLRKAMQGAGTQERVLIEILCTRTNQEIREIVRCYQSEFGRDLEKDIRSDTSGHFERLLVSMCQGNRDENQSINHQMAQEDAQRLYQAGEGRLGTDESCFNMILATRSFPQLRATMEAYSRMANRDLLSSVSREFSGYVESGLKTILQCALNRPAFFAERLYYAMKGAGTDDSTLVRIVVTRSEIDLVQIKQMFAQMYQKTLGTMIAGDTSGDYRRLLLAIVGQ

What was measured:
chromaffin granules = details: most effective fusogen of 23 compounds
[1] = system: human prostate cancer cells; details: in vitro at micromolar concentrations
[2] = presence of annexin

Molecule	minimum concentration as fusogen (chromaffin granules)	human prostate cancer cell growth [1]	increase of the aggregation rate [2]
CCCCC/C=C\C/C=C\C/C=C\C/C=C\CCCC(=O)O [AA, Arachidonic Acid (n-6 20:4)]	2 ug/ml and 6.6 uM	effective stimulator	–
B1	–	–	up to 100 fold
